{"source": "patent US6225478A", "about": "“Iridoid derivatives and neovascularization inhibitors containing the same as active ingredient” (Tsumura & Co., priority 1999, dated 2001)"}
{"test_system": "HUFEC", "experiment": "Cell Migration Assay (CMA) Test, inhibitory rate with control (-) correction", "format": "cell-based, human", "conditions": "Homo sapiens, 24 h, 125 μl of 0.32 mM sample solution in 4.0 ml medium, 80% or more = remarkable", "method": "(§1) Samples were prepared using the present compounds of Compound No. I-60 through I-315. More specifically, 32 μl of a 20 mM sample solution dissolved in dimethylsulfoxide (DMSO) were removed and brought to a volume of 1 ml with phosphate-buffered saline (PBS) to prepare a sample solution having a concentration of 0.32 mM (containing 3.2% DMSO).\nAfter disseminating the 7th subculture of […] obtained from the first generation at 4 ml/well (3.0×10^5 cells/well) in a collagen-coated 6-well plate (NUNC), the cells were cultured for 48 hours at 37° C. in the presence of 5% CO2. The cells reached nearly a completely confluent state as a result of this culturing.\nA double-edged, disposable razor blade was divided into four sections, of which one of those sections was pinched between a pair of forceps. Using this piece of razor blade, the cell surface in the above confluent state was scraped off.\nAfter washing the surface of the wells from which the cells had been scraped off with medium, 4.0 ml of fresh M199 (2+) medium were placed in the wells. 4.0 ml of M199 medium were added to the control (-) well.\n125 μl of sample solution (0.32 mM, containing 3.2% dimethylsulfoxide) were added to the wells.\n125 μl of PBS solution containing 3.2% dimethylsulfoxide were added to the control wells instead of sample. The cells were cultured for 24 hours at 37° C. in the presence of 5% CO2. After discarding the culture liquid, the cells were fixed for 30 minutes with methanol. Next, after […] the cells for 4 hours with Giemsa stain, the plates were washed with tap water and air dried.\nMeasurement of cell migration was performed by microscopically counting the number of cells that had newly migrated within the range of a 1 mm×1 mm block. […] The total number of cells counted in blocks 1 through 5 were then totaled to determine the overall total number of cells. Four fields were counted for each well.\nEvaluation was performed determining the cell migration inhibitory rate (%) according to the following equation.\nInhibitory rate=100-((number of migrating cells to which sample was added-number of migrating cells of control (-))×100/(number of migrating cells of control (+)-number of migrating cells of control (-)))\nIf this inhibitory rate was 80% or more, cell migration was assessed as being remarkable.", "units": {"inhibition at 320 µM (stock)": "%"}}
{"smiles": "COC(=O)C1=CO[C@@H](OC(=O)NCC#N)[C@@H]2C(C)=CC[C@H]12", "note": "[I-132]", "inhibition at 320 µM (stock)": 15.6}
{"smiles": "COC(=O)C1=CO[C@@H](OC(=O)NCCc2ccc(F)cc2)[C@H]2[C@@H]1CC[C@@H]2C", "note": "[I-212]", "inhibition at 320 µM (stock)": 21.5}
{"smiles": "CCOC(=O)CCCNC(=O)O[C@@H]1OC=C(C(=O)OC)[C@H]2CC=C(C)[C@@H]12", "note": "[I-135]", "inhibition at 320 µM (stock)": 23.4}
{"smiles": "COC(=O)C1=CO[C@@H](OC(=O)NC(CO)CO)[C@H]2[C@@H]1CC[C@@H]2C", "note": "[I-249]", "inhibition at 320 µM (stock)": 44}
{"smiles": "COC(=O)C1=CO[C@@H](OC(=O)N2CCN(c3ccccc3F)CC2)[C@@H]2C(C)=CC[C@H]12", "note": "[I-149]", "inhibition at 320 µM (stock)": 7.5}
{"smiles": "COC(=O)C1=CO[C@@H](OC(=O)NCCc2ccc(O)c(OC)c2)[C@@H]2C(C)=CC[C@H]12", "note": "[I-146]", "inhibition at 320 µM (stock)": 17.2}
{"smiles": "COC(=O)C1=CO[C@@H](OC(=O)NCCc2cccc(F)c2)[C@@H]2C(C)=CC[C@H]12", "note": "[I-99]", "inhibition at 320 µM (stock)": 9.9}
{"smiles": "COC(=O)C1=CO[C@@H](OC(=O)Nc2ccc(OC)cc2)[C@@H]2C(C)=CC[C@H]12", "note": "[I-161]", "inhibition at 320 µM (stock)": 14.4}
{"smiles": "COC(=O)C1=CO[C@@H](OC(=O)NCc2ccc(Br)cc2)[C@@H]2C(C)=CC[C@H]12", "note": "[I-143]", "inhibition at 320 µM (stock)": 5.9}
{"smiles": "CNC(=O)OC[C@]12O[C@H]1C[C@@H]1C(C(=O)OC)=COC[C@@H]12", "note": "[I-290]", "inhibition at 320 µM (stock)": 51.5}
{"smiles": "COC(=O)C1=CO[C@@H](OC(=O)NCCc2cccs2)[C@H]2[C@@H]1CC[C@@H]2C", "note": "[I-197]", "inhibition at 320 µM (stock)": 20}
{"smiles": "COC(=O)C1=CO[C@@H](OC(=O)N2CCC2)[C@H]2[C@@H]1CC[C@@H]2C", "note": "[I-250]", "inhibition at 320 µM (stock)": 8}
{"smiles": "O=C(C1=COC[C@@H]2C(CO)=CC[C@H]12)N1CCN(CCO)CC1", "note": "[I-301]", "inhibition at 320 µM (stock)": 56}
{"smiles": "COC(=O)C1=CO[C@@H](OC(=O)NCCCN(C)C)[C@H]2[C@@H]1CC[C@@H]2C", "note": "[I-210]", "inhibition at 320 µM (stock)": 8}
{"smiles": "COC(=O)C1=CO[C@@H](OC(=O)N2CCN(CCO)CC2)[C@H]2[C@@H]1CC[C@@H]2C", "note": "[I-180]", "inhibition at 320 µM (stock)": 50}
{"smiles": "COC(=O)C1=CO[C@@H](OC(=O)NCCN2CCCCC2)[C@@H]2C(C)=CC[C@H]12", "note": "[I-118]", "inhibition at 320 µM (stock)": 31.3}
{"smiles": "COC(=O)C1=CO[C@@H](OC(=O)NC2Cc3ccccc3C2)[C@H]2[C@@H]1CC[C@@H]2C", "note": "[I-247]", "inhibition at 320 µM (stock)": 23.4}
{"smiles": "COC(=O)C1=CO[C@@H](OC(=O)N2CCN(c3ccccc3F)CC2)[C@H]2[C@@H]1CC[C@@H]2C", "note": "[I-251]", "inhibition at 320 µM (stock)": 8.7}
{"smiles": "C[C@]12O[C@H]1C[C@@H]1C(C(=O)N3CCN(CCO)CC3)=COC[C@@H]12", "note": "[I-304]", "inhibition at 320 µM (stock)": 9.4}
{"test_system": "human umbilical-vein endothelial cells (HUVEC)", "experiment": "Tube Formation Assay (TFA) Test, HUVEC in collagen gel", "format": "cell-based", "conditions": "Homo sapiens, HUVEC, Tables 75-83; 0.32 mM sample solution; method as for Compounds 1 through 60; read-out: TFA Inhibition rate (%)", "method": "Furthermore, the sample liquids of compounds used in the CPA and CMA tests were prepared in the manner described below. Firstly, after weighing out each compound, a calculated amount of DMSO was added. After dissolving the compound in the DMSO, phosphate buffered physiological saline (PBS (-)) was added to bring the sample concentration to 1 mg/ml in PBS (-). The amount of DMSO used to dissolve the compounds was adjusted in advance to that the concentration of DMSO at that time was 5%. The resulting liquids were diluted 10-fold with 5% DMSO-PBS (-) solution to prepare sample solutions having a concentration of 0.1 mg/ml. In the TFA test, 320 μl of the prepared 1 mg/ml sample solutions were removed followed by addition of 680 μl of PBS (-) to prepare samples having a concentration of […]. Moreover, 100 μl of this solution was removed followed by addition of 900 μl of PBS (-) to dilute 10-fold and prepare samples having a concentration of 1 μg/ml. P [Cell Proliferation Assay (CPA) Test]\nTo begin with, 8 volumes of Type 1-A cell matrix (manufactured by Gibco Co.), 1 volume of 10×M119, and 1 volume of reconstituted buffer [200 mM HEPES, 0.05 N sodium hydroxide, 260 mM sodium bicarbonate] were slowly mixed under cooling with ice while avoiding bubbling to form a collagen gel. This collagen gel was distributed in a NUNC 24-well plate at 310 μl/well followed by allowing to stand undisturbed for 2 hours at 37° C. to solidify the gel.\nNext, the 7th subculture of HUVEC (1×10^5 cells/ml) obtained from the first generation in the same manner as above were disseminated at 500 μl/well. The cells were cultured for 2 hours at 37° C. to allow the cells to make contact with the collagen. After then removing the medium by aspiration, 50 μl of sample solution were added followed by addition of 310 μl/well of freshly prepared collagen gel and culturing for 1 hour and 10 minutes at 37° C. to solidify the double-layer gel.\n1 ml/well of M-199 medium containing 20% FCS, 30 ng /ml of b-FGF and 0.1 μM PMA were added to the wells followed by culturing for 20 hours at 37° C. in the presence of 5% CO2.\nMeasurement of the lengths of the formed tubes was performed using the public domain NIH Image with a computer.\nEvaluation was performed by calculating the inhibition rate (%) of tube formation according to the following formula.\nInhibition rate (%)=100-((formed tube length in presence of sample-formed tube length in presence of control (-))×100/(formed tube length in presence of control (+)-formed tube length in presence of control (-)))\nas §1\nThe testing method used for these compounds was the same as that used for the compounds of Compound No. 1 through 60 previously described.", "units": {"inhibition at 320 µM (stock)": "%"}}
{"smiles": "COC(=O)C1=CO[C@@H](OC(=O)NCC#N)[C@@H]2C(C)=CC[C@H]12", "note": "[I-132]", "inhibition at 320 µM (stock)": 3.9}
{"smiles": "COC(=O)C1=CO[C@@H](OC(=O)NCCc2ccc(F)cc2)[C@H]2[C@@H]1CC[C@@H]2C", "note": "[I-212]", "inhibition at 320 µM (stock)": 7.8}
{"smiles": "CCOC(=O)CCCNC(=O)O[C@@H]1OC=C(C(=O)OC)[C@H]2CC=C(C)[C@@H]12", "note": "[I-135]", "inhibition at 320 µM (stock)": 4.7}
{"smiles": "COC(=O)C1=CO[C@@H](OC(=O)Nc2ccc(F)cc2F)[C@@H]2C(C)=CC[C@H]12", "note": "[I-154]", "inhibition at 320 µM (stock)": 56.2}
{"smiles": "COC(=O)C1=CO[C@@H](OC(=O)NC(CO)CO)[C@H]2[C@@H]1CC[C@@H]2C", "note": "[I-249]", "inhibition at 320 µM (stock)": 11.1}
{"smiles": "COC(=O)C1=CO[C@@H](OC(=O)N2CCN(c3ccccc3F)CC2)[C@@H]2C(C)=CC[C@H]12", "note": "[I-149]", "inhibition at 320 µM (stock)": 8.7}
{"smiles": "COC(=O)C1=CO[C@@H](OC(=O)NCCc2ccc(O)c(OC)c2)[C@@H]2C(C)=CC[C@H]12", "note": "[I-146]", "inhibition at 320 µM (stock)": 7.8}
{"smiles": "COC(=O)C1=CO[C@@H](OC(=O)NCCc2cccc(F)c2)[C@@H]2C(C)=CC[C@H]12", "note": "[I-99]", "inhibition at 320 µM (stock)": 8.6}
{"smiles": "COC(=O)C1=CO[C@@H](OC(=O)Nc2ccc(OC)cc2)[C@@H]2C(C)=CC[C@H]12", "note": "[I-161]", "inhibition at 320 µM (stock)": 8.2}
{"smiles": "COC(=O)C1=CO[C@@H](OC(=O)NCc2ccc(Br)cc2)[C@@H]2C(C)=CC[C@H]12", "note": "[I-143]", "inhibition at 320 µM (stock)": 8.1}
{"smiles": "CNC(=O)OC[C@]12O[C@H]1C[C@@H]1C(C(=O)OC)=COC[C@@H]12", "note": "[I-290]", "inhibition at 320 µM (stock)": 13.5}
{"smiles": "COC(=O)C1=CO[C@@H](OC(=O)NCCc2cccs2)[C@H]2[C@@H]1CC[C@@H]2C", "note": "[I-197]", "inhibition at 320 µM (stock)": 4.5}
{"smiles": "COC(=O)C1=CO[C@@H](OC(=O)N2CCC2)[C@H]2[C@@H]1CC[C@@H]2C", "note": "[I-250]", "inhibition at 320 µM (stock)": 4.1}
{"smiles": "O=C(C1=COC[C@@H]2C(CO)=CC[C@H]12)N1CCN(CCO)CC1", "note": "[I-301]", "inhibition at 320 µM (stock)": 15.9}
{"smiles": "COC(=O)C1=CO[C@@H](OC(=O)NCCCN(C)C)[C@H]2[C@@H]1CC[C@@H]2C", "note": "[I-210]", "inhibition at 320 µM (stock)": 8.9}
{"smiles": "COC(=O)C1=CO[C@@H](OC(=O)N2CCN(CCO)CC2)[C@H]2[C@@H]1CC[C@@H]2C", "note": "[I-180]", "inhibition at 320 µM (stock)": 7.7}
{"smiles": "COC(=O)C1=CO[C@@H](OC(=O)NCCN2CCCCC2)[C@@H]2C(C)=CC[C@H]12", "note": "[I-118]", "inhibition at 320 µM (stock)": 5.1}
{"smiles": "COC(=O)C1=CO[C@@H](OC(=O)NC2Cc3ccccc3C2)[C@H]2[C@@H]1CC[C@@H]2C", "note": "[I-247]", "inhibition at 320 µM (stock)": 9.7}
{"smiles": "COC(=O)C1=CO[C@@H](OC(=O)N2CCN(c3ccccc3F)CC2)[C@H]2[C@@H]1CC[C@@H]2C", "note": "[I-251]", "inhibition at 320 µM (stock)": 7.9}
{"smiles": "C[C@]12O[C@H]1C[C@@H]1C(C(=O)N3CCN(CCO)CC3)=COC[C@@H]12", "note": "[I-304]", "inhibition at 320 µM (stock)": 11.2}
